Data set [1] is described as follows: ABTS radical cation scavenging (decolorization) test. The data set is classed as biochemical. To be noted: 734 nm, 30 min. How it is done: The in vitro antioxidant ability of the compounds synthesized in this work was evaluated using three different assays, including (i) the ABTS radical cation reduction-decolorization test, which uses the technique of Khan et al. consisting of the reduction of the cation radical by an antioxidant through the discoloration measured by absorption at the wavelength of 734 nm; (ii) interaction with the stable free radical DPPH, based on Bassene’s method, in which the scavenging of DPPH radicals is carried out by a colorimetric method consisting of the reduction of the DPPH radical, determined by its absorption at a wavelength of 517 nm; and (iii) the FRAP test according to the protocol of Path Canada, based on the ability of a substance to reduce Fe^3+ ions to Fe^2+ ions, which, in the presence of 1,10-phenanthroline, form a red-orange complex whose optical density can be measured at 505 nm.
The modified technique by Khan et al. was used to scavenge ABTS^+• cation radicals through a discoloration test. In this test, potassium permanganate (KMnO4) or potassium persulphate (K2S2O8) reacts with ABTS to generate a blue-green ABTS^+• radical. Antioxidants reduce this radical, leading to a measurable colour change at 734 nm, proportional to the antioxidant concentration. The antioxidant capacity is assessed by comparing the intensity reduction of ABTS colour with that of a reference antioxidant, gallic acid. Stock and dilute solutions of synthetic compounds were prepared as detailed in §3.2.5.1. Diluted concentrations were (50, 25, 12.5, 6.25, 3.125, 1.5625 and 0.78125)/Mi in mM. The ABTS solution was obtained by mixing ABTS with K2S2O8, producing an intense blue colour. The ABTS^+• radical was generated by combining equal volumes of a 4.9 mM K2S2O8 solution and a 7 mM ABTS stock solution, stored in the dark at room temperature for 15 h before use. The 7 mM ABTS stock was then diluted 20 times with distilled water. A total of 25 µl of each dilution was added to wells along with 75 µl of 0.175 mM ABTS+ solution. After 30 min of incubation in the dark at room temperature, optical densities were measured at 734 nm. Negative controls contained the ABTS reagent without synthesized compounds, while positive controls used gallic acid at the same final concentrations as the compounds. Compounds were also tested alone to assess fluorescence. The reduction of ABTS results in a blue discoloration, with lower absorbance indicating higher antioxidant activity.
The percentages of scavenging or 50% reduction were calculated using gallic acid as a standard for 100% reduction. The concentration of radical scavengers needed to neutralize 50% of free radicals, referred to as SC50, was determined using GraphPad Prism 8.0.1 software (244).

A short description of data set [2]: Cell viability (MTT) assay on macrophages in primary culture. In kind it is cell-based. To be noted: Wistar, mouse, peritoneal macrophages in primary culture, concentrations 2.41 × 10^–4 to 2.41 mM, read-out: half cytotoxic concentration (IC50). Here is the method: The inflammatory response is part of the body’s first line of defence against a pathogen. Macrophages are one of the most studied inflammatory cells due to their high involvement in this inflammatory process. The recognition of an antigenic motif by a toll-like receptor on macrophages leads to a cascade of molecular signalling to the synthesis of pro-inflammatory mediators such as NO to eliminate the pathogen. First, the effect of the compounds on cell viability was assessed by measuring the cytotoxicity of the compounds in cell culture using the MTT assay at concentrations ranging from 2.41 × 10^–4 to 2.41 mM (figure 1).
Peritoneal macrophages were isolated from four eight-week-old, 25 g Wistar mice by intraperitoneal injection of 0.5 ml of 2% starch solution (inflammatory agent) to stimulate their production. Four days later, the animals were sacrificed, and 5 ml of phosphate buffered saline (PBS) buffer (0.1 M, pH 7.4) was injected into their peritoneal cavity with a syringe. […]
The effect of the solutions of synthetic compounds on the viability of macrophages in primary culture was determined by using the MTT as previously described in the literature. […] Finally, the absorbance of the purple solution was read at 630 nm against the acidified isopropanol solution. The percentage of cell viability was calculated using the following formula: […]

[3] abbreviates: first replicate, read-out: ABTS SC50(1).
[4] abbreviates: mean of duplicate, read-out: ABTS mean SC50.
The mark [5] stands for this setting: second replicate, read-out: ABTS SC50(2).

Where two headings read alike, the source gives them in different places.

Take `CC(C)Cc1ccc(C(C)C(=O)OCCOC(=O)C=Cc2ccccc2)cc1` (stereo not shown) [Compound 14, 2-((2-(4-isobutylphenyl)propanoyl)oxy)ethyl cinnamate]: the EC50 in data set [1] (setting [3]), in data set [1] (setting [4]) and in data set [1] (setting [5]) was 180 µM throughout.
In the case of `CC(C)Cc1ccc(C(C)C(=O)OCCO)cc1` (stereo not shown) [Compound 3, 2-hydroxyethyl 2-(4-isobutylphenyl)propanoate], the EC50 is 3700 µM in data set [1] (setting [3]), 3900 µM in data set [1] (setting [4]) and 4110 µM in data set [1] (setting [5]).
In the case of `O=C(OCCOC(=O)c1ccccc1O)c1ccccc1O` [Compound 13, Ethane-1,2-diyl bis(2-hydroxybenzoate)], the EC50 in data set [1] (setting [3]) was determined as 210 µM; in data set [1] (setting [4]), 200 µM; in data set [1] (setting [5]), 200 µM.
Regarding `O=C(O)/C=C/c1ccccc1` [Compound 11, cinnamic acid, reference compound], the EC50 in data set [1] (setting [3]) is 5830 µM; in data set [1] (setting [4]), 5910 µM; in data set [1] (setting [5]) it was 5980 µM.
Taken in the same sequence, the figures for `CC(C)Cc1ccc(C(C)C(=O)O)cc1` (stereo not shown) [Compound 1, ibuprofen, reference compound] were 210 µM, 200 µM and 200 µM.
Turning to `CC(C)Cc1ccc(C(=O)OCCOC(=O)C(C)c2ccc(CC(C)C)cc2)cc1` (stereo not shown) [Compound 2, 2-((2-(4-isobutylphenyl)propanoyl)oxy)ethyl 4-isobutylbenzoate], the EC50 in data set [1] (setting [3]) was 1670 µM; in data set [1] (setting [4]), 1700 µM; in data set [1] (setting [5]), 1730 µM. For the same compound, in data set [2], the IC50 at 3 h is 4900 µM.
For the compound `CCCCCCCCCCCC(=O)OCCOC(=O)c1ccccc1O` [DEW4a], the EC50 in data set [1] (setting [3]) amounted to 3240 µM; in data set [1] (setting [4]) it was 3250 µM; in data set [1] (setting [5]) it was 3300 µM.
Regarding `O=C(OCCO)c1ccccc1O` [Compound 7, 2-hydroxyethyl 2-hydroxybenzoate], the EC50 in data set [1] (setting [3]), in data set [1] (setting [4]) and in data set [1] (setting [5]) was 210 µM in each case.
For `O=C(/C=C/c1ccccc1)OCCOC(=O)c1ccccc1O` [Compound 12, (E)-2-(cinnamoyloxy)ethyl 2-hydroxybenzoate], the EC50 in data set [1] (setting [3]) came to 3360 µM; in data set [1] (setting [4]), 3470 µM; in data set [1] (setting [5]) it was 3600 µM.
In the same order, the values of `CCCCCCCCCCCC(=O)OCCOC(=O)C(C)c1ccc(CC(C)C)cc1` (stereo not shown) [Compound 5a, 2-((2-(4-isobutylphenyl)propanoyl)oxy)ethyl dodecanoate] are 2770 µM, 2790 µM and 2810 µM.

For the origin of these results see PMC12074795, “Synthesis and biological evaluation of esterified anti-inflammatory drugs with ethylene glycol linkers: cytotoxicity, anti-inflammatory and antioxidant properties” (Royal Society Open Science, 2025).
